Like-named read-outs stand apart in the source and are kept apart here.
Columns and labels:
[1] = target: T1, p53 Y220C mutant protein (amino acid residues 94-293) (Homo sapiens, UniProt P04637, Y220C); test: Surface Plasmon Resonance (SPR) assay, Kd_kinetic; assay type: binding; settings: SPR, p53 Y220C, read-out: SPR P53 Y220C KD kinetic
T1 construct: p53 Y220C mutant protein (amino acid residues 94-293)
Method in brief: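 Kinetic dissociation constants derived by 1:1 model fit of SPR data acquired at 16 or 20 °C, pH 7.5 Tris/NaCl running buffer with 1% DMSO.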

[2] = test system: H1299 p53 Y220C; test: Cell Proliferation Assay (CellTiter-Glo, CTG), H1299 p53 Y220C (NClH1299-inducible p53 Y220C); assay type: cell-based; settings: Homo sapiens, NCI-H1299, 120 h, 5 days
Method in brief: (§1)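 Tet-One inducible p53 Y220C or R273H constructs were stably introduced into NCI-H1299 by lentiviral transduction; NUGC3 was used as is. Cells (250-500 per well) were exposed to compound for 5 days, then CellTiter-Glo was added for 10 min at room temperature and IC50 was calculated from luminescence.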

[3] = target: p53 Y220C (Homo sapiens, UniProt P04637, Y220C); test: Luciferase Reporter Assay (Luc), p53 response element, NClH1299 cells with inducible p53 Y220C; assay type: cell-based; settings: 6 hour; for AC50: read-out: Luc P53 Y220C AC50
Method in brief: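 Luminescence readout (One-Glo, 5 min shaking at RT, read at once) after 6 h compound exposure; cells pre-induced 24 h with 0.5 ug/mL doxycycline, 5,000/well.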

[4] = test system: H1299 p53 R273H; test: Cell Proliferation Assay (CellTiter-Glo, CTG), H1299 p53 R273H (NClH1299-inducible p53 R273H); assay type: cell-based; settings: Homo sapiens, NCI-H1299, 120 h, 5 days
Method in brief: as §1

[5] = test system: NUGC3 p53 Y220C; test: Cell Proliferation Assay (CellTiter-Glo, CTG), NUGC3 p53 Y220C; assay type: cell-based; settings: Homo sapiens, NUGC-3, 120 h, 5 days
Method in brief: as §1

[6] = NClH1299-inducible p53 Y220C cells, CellTiter-Glo
[7] = AC50, luciferase reporter, NClH1299 inducible p53 Y220C
[8] = Emax, luciferase reporter, NClH1299 inducible p53 Y220C
[9] = NClH1299-inducible p53 R273H cells, CellTiter-Glo
[10] = NClH1299-inducible p53 Y220C cells
[11] = AC50, NClH1299 cells with inducible p53 Y220C
[12] = Emax, NClH1299 cells with inducible p53 Y220C, 10 uM tool compound as positive control
[13] = NClH1299-inducible p53 R273H cells
[14] = luciferase reporter, NClH1299 inducible p53 Y220C, 10 uM tool compound as positive control
[15] = luciferase reporter, NClH1299 inducible p53 Y220C

T1 sequence (P04637 94-293, stated change not applied): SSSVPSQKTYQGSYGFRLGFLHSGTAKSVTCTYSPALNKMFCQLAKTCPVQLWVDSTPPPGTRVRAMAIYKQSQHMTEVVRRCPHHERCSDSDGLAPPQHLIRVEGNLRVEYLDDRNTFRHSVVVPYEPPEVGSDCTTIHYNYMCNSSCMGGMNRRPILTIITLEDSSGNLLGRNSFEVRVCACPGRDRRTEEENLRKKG

| Structure (SMILES) | Kd [1] [nM] | IC50 [2, 6] [nM] | AC50 [3, 7] [nM] | Emax [3, 8] [%] | IC50 [4, 9] [µM] | IC50 ([5]; NUGC3 cells, CellTiter-Glo) [nM] | IC50 [2, 10] [nM] | AC50 [3, 11] [nM] | Emax [3, 12] [%] | IC50 [4, 13] [µM] | IC50 ([5]; NUGC3 cells) [nM] | Kd ([1]; kinetic KD) [nM] | IC50 ([2]; CellTiter-Glo, H1299 p53 Y220C) [nM] | Emax [3, 14] [%] | AC50 [3, 15] [nM] | IC50 ([4]; CellTiter-Glo, H1299 p53 R273H) [µM] | IC50 ([5]; CellTiter-Glo, NUGC3 p53 Y220C) [nM] |
| --- | --- | --- | --- | --- | --- | --- | --- | --- | --- | --- | --- | --- | --- | --- | --- | --- | --- |
| O=C(NCC1(O)CC1)c1ccc(NCC#Cc2cc3c(N[C@@H]4CCNC[C@@H]4F)cccn3c2SC(F)(F)F)cc1 [Example 367] | < 10 | < 750 | < 750 | > 90 | 8 to 10 | < 750 |  |  |  |  |  |  |  |  |  |  |  |
| COc1cc(C(=O)NCC(C)(C)O)ccc1NCC#Cc1cc2c(N[C@@H]3CCN(C)C[C@@H]3F)cccn2c1SC(F)(F)F [Example 375] | < 10 | < 750 | < 750 | > 90 | 8 to 10 | < 750 |  |  |  |  |  |  |  |  |  |  |  |
| COc1cc(P(C)(C)=O)ccc1NCC#Cc1cn2c(N[C@@H]3CCN(C)C[C@@H]3F)cccc2c1SC(F)F [Example 415] | < 10 | 750 to 1500 | < 750 | 80 to 90 | ≥ 10 | 750 to 1500 |  |  |  |  |  |  |  |  |  |  |  |
| CNC(=O)c1cc(F)c(OC)c(NCC#Cc2cc3c(N[C@@H]4CCN(C)C[C@@H]4F)nccn3c2SC(F)(F)F)c1 [Example 337] | < 10 | < 750 | < 750 | > 90 | < 5 | < 750 |  |  |  |  |  |  |  |  |  |  |  |
| CN1CC[C@@H](Nc2cccn3c(SC(F)(F)F)c(C#CCNc4ccc(S(C)(=O)=O)cc4)cc23)[C@@H](F)C1 [Example 418] | < 10 | < 750 | < 750 | > 90 | ≥ 10 | < 750 |  |  |  |  |  |  |  |  |  |  |  |
| CNC(=O)c1ccc(NCC#Cc2cc3c(N[C@@H]4CCN(C)C[C@@H]4F)cccn3c2SC(F)(F)F)c(C#N)c1 [Example 432, 3-cyano-4-{[3-(8-{[(3S,4R)-3-fluoro-1-methylpiperidin-4-yl]amino}-3-[(trifluoromethyl)sulfanyl]indolizin-2-yl)prop-2-yn-1-yl]amino}-N-methylbenzamide] | < 10 | < 750 | < 750 | > 90 | ≥ 10 | < 750 |  |  |  |  |  |  |  |  |  |  |  |
| CNC(=O)c1ccc(NCC#Cc2cc3c(N[C@@H]4CCN(C)C[C@@H]4F)cccn3c2SC(F)(F)F)c(F)c1 [Example 502, 3-fluoro-4-{[3-(8-{[(3S,4R)-3-fluoro-1-methylpiperidin-4-yl]amino}-3-[(trifluoromethyl)sulfanyl]indolizin-2-yl)prop-2-yn-1-yl]amino}-N-methylbenzamide] | < 10 |  |  |  |  |  | < 750 | < 750 | > 90 | ≥ 10 | < 750 |  |  |  |  |  |  |
| CNC(=O)c1c[nH]nc1NCC#Cc1nc2c(N[C@@H]3CCN(C)C[C@@H]3F)cccn2c1SC(F)(F)F [Example 198] |  |  |  |  |  |  |  |  |  |  |  | < 10 | < 750 | 80 to 90 | < 750 | ≥ 10 | < 750 |
| C[C@H](O)[C@H](C)NC(=O)c1ccc(NCC#Cc2cc3c(N[C@@H]4CCN(C)C[C@@H]4F)cccn3c2SC(F)(F)F)cc1 [Example 383] | < 10 | < 750 | < 750 | > 90 | 8 to 10 | < 750 |  |  |  |  |  |  |  |  |  |  |  |
| O=C(NC[C@@H]1CCO1)c1ccc(NCC#Cc2cc3c(N[C@@H]4CCNC[C@@H]4F)cccn3c2SC(F)(F)F)cc1 [Example 368] | < 10 | < 750 | < 750 | 80 to 90 | 5 to 8 | < 750 |  |  |  |  |  |  |  |  |  |  |  |
| CNC(=O)c1ccc(O)c(NCC#Cc2cc3c(N[C@@H]4CCNC[C@@H]4F)cccn3c2SC(F)(F)F)c1 [Example 477, 3-{[3-(8-{[(3S,4R)-3-fluoropiperidin-4-yl]amino}-3-[(trifluoromethyl)sulfanyl]indolizin-2-yl)prop-2-yn-1-yl]amino}-4-hydroxy-N-methylbenzamide] | < 10 |  |  |  |  |  | < 750 | < 750 | 80 to 90 | ≥ 10 | < 750 |  |  |  |  |  |  |
| CNC(=O)c1ccc(N[C@@H](C)C#Cc2nc3c(N[C@@H]4CCN(C)C[C@@H]4F)cccn3c2SC(F)(F)F)c(OC)c1 [Example 134] |  |  |  |  |  |  |  |  |  |  |  | 10 to 100 | > 3000 | 70 to 80 | > 3000 | 5 to 8 | > 3000 |

— US20260374766A1, “METHODS FOR TREATING CANCER” (Antares Therapeutics, Inc., priority 2022, published 2026)
